Test results from patent US10058097B2, “Methods to increase corn productivity” (Valent BioSciences Corporation, priority 2016, dated 2018).

Columns and labels:
Assay type in all cases: in vivo
corn [1] = experiment: Greenhouse study: GB alone or in combination with GA4, nine days; conditions: GA4 120 mg/liter, GB 10,000 mg/liter; n = 7 plants
Method: (§1) In several of the following examples, corn was grown in greenhouse conditions, which are defined as follows. Seeds of a commercial hybrid variety were sown in Pro-Mix® BX (Pro-Mix is a registered trademark of Premier Horticulture Ltd.) with the addition of Osmocote (14-14-14) and gypsum in three-liter pots. Greenhouses were kept at 25±3° C. under a 16:8 hour photoperiod, with illumination at canopy level of ˜250 μmoles m^−2s^−1. Corn was typically fertigated with Peters 21-5-20+micronutrients, calcium ammonium nitrate and magnesium sulfate. Typical growth rates for corn under these conditions ranged from 4-5 cm/day.
(§2) In most greenhouse studies, spray applications were made. These applications were made in a track sprayer outfitted with a 4001E Teejet® nozzle (Teejet is available from and a registered trademark of Spraying Systems Co., Glendale Heights, Ill., USA) and applied at 40 psi. Although application volumes did vary between some studies, generally, 30 gallons/acre of spray solution was applied. Following spray applications, plants were returned to the greenhouse. Typically, experiments were blocked according to plant size, and a randomized complete block design (RCB) was used.
(§3) Synergy was determined using the following formula, in which a synergy factor is calculated by the Abbott method: % Cexp=A+B−(AB/100), here % Cexp is the expected efficacy and “in which A and B are the increase in growth (or resistance to stress) levels given by the single [plant growth regulators]. If the ratio between the experimentally observed efficacy of the mixture Cobs and the expected efficacy of the mixture is greater than 1, synergistic interactions are present in the mixture” (Gisi, Synergistic Interaction of Fungicides in Mixtures, The American Phytopathological Society, 86:11, 1273-1279, 1996).
In a greenhouse study, the effect of combining GB with GA4 was studied.

corn [2] = experiment: Nutrient stress greenhouse study, GA3 and/or GB, 7 days; conditions: GA3 120 mg/liter, GB 10,000 mg/liter; for Change in Height: n = 7 plants
Method: as §3
During rainy periods in March-May in the Midwestern United States, nitrogen fertilizer for corn is often limited due to a combination of leaching and mineralization. GB included with GA3 can help overcome the slow growth caused by low nutrients. In a greenhouse study in Long Grove, Ill. we evaluated the effect of GA3, GB and the combination under ‘normal nutrient’ and limited nutrient conditions.

greenhouse-grown maize [3] = experiment: Greenhouse study: effect of GA3 dose +/- GB on growth, 7 and 14 days; conditions: GA3 0 mg/liter, GB 10000 mg/liter
Method: as §1, §2, §3
In a separate study, the effect of one rate of GB on various doses of GA3 was studied.

potted corn plants [4] = experiment: Chronic drought stress greenhouse study, potted corn, 14 days; conditions: 20 Percent Volumetric Water Content, 120 mg/liter GA3, 3000 mg/liter GB, n = 5
Method: In drought stress studies, corn plants were sprayed at the V4 stage with solutions containing a non-ionic surfactant (0.25%, v/v) at 30 gallons of spray solution/acre and growth was determined by change in height from time of treatment or fresh and dry shoot weight measurements 14 days later.
In greenhouse drought stress studies, corn plants were treated and subsequently watered with an automated irrigation system that maintained the soil moisture in the pots at 45% or 20% volumetric water content (“VWC”). Plants set to 20% after treatment took about 4 days without the automated system adding water to those pots to reach 20% VWC and then the automated system added water as needed to maintain 20% VWC. Total soil moisture capacity was 45% VWC and 20% VWC represented drought stress conditions. This would be considered chronic stress, as a lower level of VWC was maintained throughout the experiment after treatment.

potted corn plants [5] = experiment: Acute drought stress greenhouse study, potted corn, 7 and 14 days; conditions: acute drought stressed; 120 ppm GA3, 3000 ppm GB; spray at V4
Method: In a separate acute drought stress greenhouse study conducted in Long Grove, Ill., corn plants were sprayed at V4 stage with solutions containing a non-ionic surfactant (0.25%, v/v) at 30 gallons of spray solution/acre and growth was determined by shoot height increase 7 and 14 days later. After treatment corn plants were not watered with the exception of one treatment of control (aqueous surfactant solution) that were watered as needed (well-watered control).

corn plants [6] = experiment: Greenhouse study: growth of corn after V3 spray with GA3 or GB, nine days; conditions: non-stressed greenhouse; spray at V3; GA3 120 mg/liter, GB 3000 mg/liter; n = 7
Method: as §1, §2
In a greenhouse study conducted in Long Grove, Ill., corn plants were sprayed at V3 stage with solutions containing a non-ionic surfactant (0.25%, v/v) at 30 gallons of spray solution/acre and growth was followed for nine days.
as §3
Based on a conservative approach, synergy was determined to be present at ratios of ≥1.10. When grown under non-stressed conditions, GA3 growth was synergized by the addition of 3,000 mg/liter glycine betaine (“GB”), with a synergy factor of 1.65 for growth and 1.68 for growth rate while dry weight/plant was not synergistic with a synergy factor of 0.95.

greenhouse-grown maize [7] = experiment: Leaf chlorophyll by SPAD meter, GA3 dose +/- GB; conditions: GA3 0 mg/liter, GB 10000 mg/liter; n = 8 plants
Method: In the same study, leaf chlorophyll was monitored by measurements with a SPAD meter (Minolta Model 502; Ramsey, N.J.). In this study, the chlorophyll level in the most recently fully-expanded leaf was measured at five different points and the results averaged.

corn plants [8] = experiment: Chilling stress study (10° C. for five days) after spray with GA3 or GB; conditions: chilling stress at 10° C. for five days; GA3 120 mg/liter, GB 3000 mg/liter; n = 7 plants
Method: In stress studies, plants were subjected to various stresses. In cold stress studies, after spraying, plants were grown in the greenhouse for an additional 48 hours before being measured and moved to a CMP6050 CONVIRON® chamber kept at 10° C. (Conviron is a registered trademark of Controlled Environments Limited Corporation). Illumination was at ˜225 μMoles, and light:dark conditions were on a 12:12 hour photoperiod. After 120 hours of chilling, plants were removed from the cold, measured, and returned to the greenhouse for 48 hours prior to harvest.
as §3
In a greenhouse and growth room study conducted in Long Grove, Ill., corn plants of a commonly grown hybrid were subjected to the following stress regimen: at two days post-foliar application, plants were moved into a controlled environment chamber, where the temperature was maintained at 10° C. with a 12:12 hour photoperiod for five days. At the end of the chilling period, the corn was moved back to the greenhouse for two days before destructive harvest.

corn [9] = experiment: Greenhouse study: Gibberellins, (S)-ABA and Glycine betaine on corn growth; conditions: GA3 or GA4 120 mg/liter, GB 10000 mg/liter, (S)-ABA 8.8 mg/liter
Method: as §1, §2
When gibberellins are combined with specific ratios of (S)-(+)-abscisic acid (“(S)-ABA”), a surprising enhancement of corn growth after application is often observed. The addition of GB to gibberellin+(S)-ABA spray combinations further increases the growth-promoting activity of the mixtures, as is shown in Table 6.

C[N+](C)(C)CC(=O)[O-] [GB, Glycine betaine]
Dry Weight (corn [1]): 7.47 g
Growth Rate (corn [1]): 6.1 cm/day
Plant Growth over 9 days (corn [1]): 55.2 cm
Dry Weight (corn [2]; Low Nutrients): 2.79 g
Leaf Area (L1-L6) (corn [2]; Low Nutrients): 611.73 cm^2
Change in Height (corn [2]; Low Nutrients): 24.54 cm
Dry Weight (corn [2]; Normal Nutrients): 3.25 g
Leaf Area (L1-L6) (corn [2]; Normal Nutrients): 656.76 cm^2
Change in Height (corn [2]; Normal Nutrients): 35.37 cm
Growth Rate, 0-7 day(s) (greenhouse-grown maize [3]): 2.51 cm/day
Growth Rate, 0-14 day(s) (greenhouse-grown maize [3]): 6.23 cm/day
Plant Growth over 14 days (greenhouse-grown maize [3]): 43.6 cm
Plant Growth over 7 days (greenhouse-grown maize [3]; n = 8 plants): 17.6 cm
Percent Dry Weight of Drought Stressed Control (potted corn plants [4]): 94.33%
Percent Fresh Weight of Drought Stressed Control (potted corn plants [4]): 93.16%
Shoot Growth 7 days after treatment as Percent Increase as compared to Drought Stressed Control (potted corn plants [5]): 95.9%
Shoot Growth 14 days after treatment as Percent Increase as compared to Drought Stressed Control (potted corn plants [5]): 97.6%
Dry Weight/Plant (corn plants [6]): 2.75 g
Growth Rate (corn plants [6]): 4.49 cm/day
Growth over 9 days (corn plants [6]): 40.4 cm
Chlorophyll (SPAD reading) 14 days (greenhouse-grown maize [7]): 34.0 SPAD reading
Growth Rate (corn plants [8]): 2.16 cm/day
Growth over 9 days (corn plants [8]): 19.41 cm
Leaf Area of L1-L5 (corn plants [8]): 356.47 cm^2

C=C1C[C@]23C[C@H]1CC[C@H]2[C@@]12CC[C@H](O)[C@@](C)(C(=O)O1)[C@H]2[C@@H]3C(=O)O [GA4, gibberellin A4]
Dry Weight (corn [1]): 7.68 g
Growth Rate (corn [1]): 7.1 cm/day
Plant Growth over 9 days (corn [1]): 64.1 cm
7 days Change in Height (corn [9]): 33.9 cm
14 days Change in Height (corn [9]): 62.2 cm
Dry Weight (corn [9]): 8.1 g
